Values quoted from earlier work as cited in patent US20040131702A1, “Use of selenite or preparation containing selenite for treating wounds” (priority 2001, published 2004).
Values joined by “and” are separate entries in the source; they are usually repeats but may differ in a detail not shown here. Equal entries are not always repeated.

What was measured:
[1] = acid environment
human body = settings: in vivo
animals = settings: in vivo

Compound | Standard redox potential E0 [1] | Selenium content of the daily food above which the human body will fall ill (human body) | Selenium content of food above which animals exhibit symptoms of poisoning (animals)
O=[Se](O)O [selenite] | −0.740 Volt and −0.740 (acid environment) Volt |  | 
[Se] [selenium] |  | more than 1 μg of selenium/g | 5 to 10 μg of selenium/g
